melting point | SMILES
> 250 °C | NS(=O)(=O)c1cncc(-c2cn(-c3cc(C(F)(F)F)cc(-c4ccc(C(F)(F)F)cc4)n3)cn2)c1 [Example 290, 5-{1-[4-Trifluoromethyl-6-(4-trifluoromethyl-phenyl)-pyridin-2-yl]-1H-imidazol-4-yl}-pyridine-3-sulfonic acid amide]
130 to 135 °C | Nc1ccc(-c2cccc(-c3cc(-c4ccc(C(F)(F)F)cc4)cc(C4CC4)n3)c2)cn1 [Example 64, 5-{3-[6-Cyclopropyl-4-(4-trifluoromethyl-phenyl)-pyridin-2-yl]-phenyl}-pyridin-2-ylamine]
223 °C | Nc1ccc(-c2cc(-c3nc(-c4ccc(C(F)(F)F)c(OCC(F)(F)F)c4)cc(C(F)(F)F)n3)ccn2)cn1 [Example 135, 4-{4-[3-(2,2,2-Trifluoro-ethoxy)-4-trifluoromethyl-phenyl]-6-trifluoromethyl-pyrimidin-2-yl}-[2,3′]bipyridinyl-6′-ylamine]
223.5 °C | Nc1cc(-c2noc(-c3nc(-c4ccc(C(F)(F)F)cc4)cc(C(F)(F)F)n3)n2)ccn1 [Example 12, 4-{5-[4-Trifluoromethyl-6-(4-trifluoromethyl-phenyl)-pyrimidin-2-yl]-[1,2,4]oxadiazol-3-yl}-pyridin-2-ylamine]
167 °C | Cc1cc(-c2ccc(C(F)(F)F)cc2)cc(-c2ccnc(-c3cccc(N)c3)n2)n1 [Example 326, 3-{4-[6-Methyl-4-(4-trifluoromethyl-phenyl)-pyridin-2-yl]-pyrimidin-2-yl}-phenylamine]
232.5 °C | Cc1cc(-c2ccc(Cl)cc2)nc(-c2ccnc(-c3ccc(S(N)(=O)=O)s3)c2)n1 [Example 192, 5-{4-[4-(4-Chloro-phenyl)-6-methyl-pyrimidin-2-yl]-pyridin-2-yl}-thiophene-2-sulfonic acid amide]
> 250 °C | Cc1cc(-c2ccc(C(F)(F)F)cc2)cc(-c2cccc(-c3csc(N)n3)c2)n1 [Example 342, 4-{3-[6-Methyl-4-(4-trifluoromethyl-phenyl)-pyridin-2-yl]-phenyl}-thiazol-2-ylamine]
204 °C | NS(=O)(=O)c1ccc(-c2cccc(-c3nc(-c4ccc(C(F)(F)F)cc4)cc(C(F)(F)F)n3)c2)s1 [Example 161, 5-{3-[4-Trifluoromethyl-6-(4-trifluoromethyl-phenyl)-pyrimidin-2-yl]-phenyl}-thiophene-2-sulfonic acid amide]
191 °C | Nc1ccc(-c2nc(-c3nc(-c4ccc(Cl)cc4)cc(C(F)(F)F)n3)no2)cn1 [Example 22, 5-{3-[4-(4-Chloro-phenyl)-6-trifluoromethyl-pyrimidin-2-yl]-[1,2,4]oxadiazol-5-yl}-pyridin-2-ylamine]
213.5 °C | NS(=O)(=O)c1ccc(-c2cccc(-c3nc(-c4ccc(C(F)(F)F)c(F)c4)cc(C(F)(F)F)n3)c2)s1 [Example 461, 5-{3-[4-(3-Fluoro-4-trifluoromethyl-phenyl)-6-trifluoromethyl-pyrimidin-2-yl]-phenyl}-thiophene-2-sulfonic acid amide]
156 °C (dec.) | Cc1cc(-c2ccc(C(F)(F)F)cc2)cc(-c2ccnc(-c3cccc(S(=O)(=O)N4CCSCC4)c3)c2)n1 [Example 347, 6-Methyl-2′-[3-(thiomorpholine-4-sulfonyl)-phenyl]-4-(4-trifluoromethyl-phenyl)-[2,4′]bipyridinyl]
228 °C | NS(=O)(=O)c1ccc(-c2cn(-c3nc(-c4ccc(F)c(F)c4)cc(C(F)(F)F)n3)cn2)s1 [Example 385, 5-{1-[4-(3,4-Difluoro-phenyl)-6-trifluoromethyl-pyrimidin-2-yl]-1H-imidazol-4-yl}-thiophene-2-sulfonic acid amide]
227 °C | Cc1cc(-c2ccc(Cl)cc2)nc(-c2cccc(-c3ccc(S(N)(=O)=O)s3)c2)n1 [Example 173, 5-{3-[4-(4-Chloro-phenyl)-6-methyl-pyrimidin-2-yl]-phenyl}-thiophene-2-sulfonic acid amide]
255.5 °C | Cc1cc(-c2ccc(Cl)c(Cl)c2)nc(-n2cnc(-c3cnc(N)nc3)c2)n1 [Example 144, 5-{1-[4-(3,4-Dichloro-phenyl)-6-methyl-pyrimidin-2-yl]-1H-imidazol-4-yl}-pyrimidin-2-ylamine]
244 °C (dec.) | NS(=O)(=O)c1cccc(-c2cccc(-c3nc(-c4ccc(C(F)(F)F)cc4)cc(C(F)(F)F)n3)n2)c1 [Example 364, 3-{6-[4-Trifluoromethyl-6-(4-trifluoromethyl-phenyl)-pyrimidin-2-yl]-pyridin-2-yl}-benzenesulfonamide]
244 °C | CC(=O)NS(=O)(=O)c1cccc(-c2cccc(-c3cc(-c4ccc(C(F)(F)F)cc4)cc(C)n3)n2)c1 [Example 443, N-Acetyl-3-[6′-methyl-4′-(4-trifluoromethyl-phenyl)-[2,2′]bipyridinyl-6-yl]-benzenesulfonamide]
242 °C (dec.) | Cc1cc(-c2ccc(C(F)(F)F)cc2)cc(-c2ccnc(-c3ccc(S(=O)(=O)NC(C)(C)C)s3)n2)n1 [Example 303, 5-{4-[6-Methyl-4-(4-trifluoromethyl-phenyl)-pyridin-2-yl]-pyrimidin-2-yl}-thiophene-2-sulfonic acid tert-butylamide]

melting point | SMILES
163 °C | Cc1cc(-c2ccc(C(F)(F)F)cc2)cc(-c2nc(-c3ccc(N)nc3)no2)n1 [Example 236, 5-{5-[6-Methyl-4-(4-trifluoromethyl-phenyl)-pyridin-2-yl]-[1,2,4]oxadiazol-3-yl}-pyridin-2-ylamine]
239 °C (dec.) | Cc1cc(-c2ccc(C(F)(F)F)cc2)nc(-c2cccc(-c3cccc(S(N)(=O)=O)c3)n2)n1 [Example 419, 3-{6-[4-Methyl-6-(4-trifluoromethyl-phenyl)-pyrimidin-2-yl]-pyridin-2-yl}-benzenesulfonamide]
262 °C | NS(=O)(=O)c1ccc(-c2cc(-c3nc(-c4ccc(C(F)(F)F)cc4)cc(C(F)(F)F)n3)ccn2)s1 [Example 164, 5-{4-[4-Trifluoromethyl-6-(4-trifluoromethyl-phenyl)-pyrimidin-2-yl]-pyridin-2-yl}-thiophene-2-sulfonic acid amide]
135 °C | CCNS(=O)(=O)c1cccc(-c2cccc(-c3cc(-c4ccc(C(F)(F)F)cc4)cc(C)n3)n2)c1 [Example 446, N-Ethyl-3-[6′-methyl-4′-(4-trifluoromethyl-phenyl)-[2,2′]bipyridinyl-6-yl]-benzenesulfonamide]
281 °C | NS(=O)(=O)c1ccc(-c2cc(-c3nc(-c4ccc(F)c(F)c4)cc(C(F)(F)F)n3)ccn2)s1 [Example 399, 5-{4-[4-(3,4-Difluoro-phenyl)-6-trifluoromethyl-pyrimidin-2-yl]-pyridin-2-yl}-thiophene-2-sulfonic acid amide]
211 °C | Nc1ccc(-c2noc(-c3nc(-c4ccc(Cl)cc4)cc(C(F)(F)F)n3)n2)cn1 [Example 9, 5-{5-[4-(4-Chloro-phenyl)-6-trifluoromethyl-pyrimidin-2-yl]-[1,2,4]oxadiazol-3-yl}-pyridin-2-ylamine]
245 °C | Cc1cc(-c2ccc(Cl)c(Cl)c2)cc(-n2cnc(-c3ccc(N)nc3)c2)n1 [Example 246, 5-{1-[4-(3,4-Dichloro-phenyl)-6-methyl-pyridin-2-yl]-1H-imidazol-4-yl}-pyridin-2-ylamine]
230 to 232 °C | Cc1cc(-c2ccc(C(F)(F)F)cc2)nc(-n2cnc(-c3ccc(N)nc3)c2)n1 [Example 46, 5-{1-[4-Methyl-6-(4-trifluoromethyl-phenyl)-pyrimidin-2-yl]-1H-imidazol-4-yl}-pyridin-2-ylamine]
> 250 °C | Cc1cc(-c2ccc(C(F)(F)F)cc2)cc(-c2ccnc(-c3ccc(S(N)(=O)=O)s3)c2)n1 [Example 316, 5-[6-Methyl-4-(4-trifluoromethyl-phenyl)-[2,4′]bipyridinyl-2′-yl]-thiophene-2-sulfonic acid amide]
238 to 240 °C | Nc1ncc(-c2cn(-c3nc(-c4ccc(Cl)cc4)cc(C4CC4)n3)cn2)cn1 [Example 51, 5-{1-[4-(4-Chloro-phenyl)-6-cyclopropyl-pyrimidin-2-yl]-1H-imidazol-4-yl}-pyrimidin-2-ylamine]
254 °C | Nc1ccc(-c2cn(-c3nc(-c4ccc(Cl)cc4)cc(C(F)(F)F)n3)cn2)cn1 [Example 14, 5-{1-[4-(4-Chloro-phenyl)-6-trifluoromethyl-pyrimidin-2-yl]-1H-imidazol-4-yl}-pyridin-2-ylamine]
253.5 °C | Nc1ccc(-c2cn(-c3nc(-c4ccc(C(F)(F)F)cc4)cc(C(F)F)n3)cn2)cn1 [Example 32, 5-{1-[4-Difluoromethyl-6-(4-trifluoromethyl-phenyl)-pyrimidin-2-yl]-1H-imidazol-4-yl}-pyridin-2-ylamine]
188 °C | CCCC(=O)NS(=O)(=O)c1cccc(-c2cccc(-c3cc(-c4ccc(C(F)(F)F)cc4)cc(C)n3)n2)c1 [Example 454, N-Butyryl-3-[6′-methyl-4′-(4-trifluoromethyl-phenyl)-[2,2′]bipyridinyl-6-yl]-benzenesulfonamide]
> 250 °C | NS(=O)(=O)c1cccc(-c2cn(-c3cc(-c4ccc(C(F)(F)F)cc4)cc(C(F)(F)F)n3)cn2)c1 [Example 296, 3-{1-[6-Trifluoromethyl-4-(4-trifluoromethyl-phenyl)-pyridin-2-yl]-1H-imidazol-4-yl}-benzenesulfonamide]
196 °C | Cc1cc(-c2ccc(C(F)(F)F)cc2)cc(-c2ccc(-c3ccc(N)nc3)s2)n1 [Example 252, 5-{5-[6-Methyl-4-(4-trifluoromethyl-phenyl)-pyridin-2-yl]-thiophen-2-yl}-pyridin-2-ylamine]
210 °C | NS(=O)(=O)c1cccc(-c2cc(-c3nc(-c4ccc(C(F)(F)F)cc4F)cc(C(F)(F)F)n3)ccn2)c1 [Example 450, 3-{4-[4-(2-Fluoro-4-trifluoromethyl-phenyl)-6-trifluoromethyl-pyrimidin-2-yl]-pyridin-2-yl}-benzenesulfonamide]
229 °C | Nc1ccc(-c2noc(-c3cc(C(F)(F)F)cc(-c4ccc(C(F)(F)F)cc4)n3)n2)cn1 [Example 238, 5-{5-[4-Trifluoromethyl-6-(4-trifluoromethyl-phenyl)-pyridin-2-yl]-[1,2,4]oxadiazol-3-yl}-pyridin-2-ylamine]
